# Results published in patent US20070191316A1, “VITAMIN D ANALOG - NEL, METHODS AND USES THEREOF” (WISCONSIN ALUMNI RESEARCH FOUNDATION, priority 2006, published 2007).
# “Also recorded” adds a separate entry of the source.
# How the values were obtained:
# [1] = cited from earlier work; for calcemic activity as compared to 1α,25-dihydroxyvitamin D3: prior-art patents
# cell differentiation = details: prior art; cited from earlier work
# vitamin D receptors = molecular target: T1, vitamin D receptors (Homo sapiens, UniProt P11473); details: prior-art patents; cited from earlier work
# T1 sequence (P11473 1-427): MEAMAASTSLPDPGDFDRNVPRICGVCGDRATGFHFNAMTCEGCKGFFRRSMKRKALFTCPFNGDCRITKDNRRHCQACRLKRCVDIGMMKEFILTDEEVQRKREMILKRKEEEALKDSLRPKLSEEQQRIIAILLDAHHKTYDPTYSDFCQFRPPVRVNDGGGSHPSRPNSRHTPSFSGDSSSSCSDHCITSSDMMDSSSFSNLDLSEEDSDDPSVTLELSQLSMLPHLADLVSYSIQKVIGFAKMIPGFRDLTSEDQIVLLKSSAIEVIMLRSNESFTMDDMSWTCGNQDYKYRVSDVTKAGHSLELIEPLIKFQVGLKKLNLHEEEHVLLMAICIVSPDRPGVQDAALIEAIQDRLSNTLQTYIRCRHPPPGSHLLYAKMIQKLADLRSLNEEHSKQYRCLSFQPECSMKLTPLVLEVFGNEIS
# [2] = tested on: Human promyelocytic leukemia (HL60) cells; test: HL-60 differentiation (nitro blue tetrazolium reduction); format: cell-based; details: 4 days, NBT reduction, FIG. 4
# Procedure: FIG. 4 is a graph comparing the percent HL-60 cell differentiation as a function of the concentration of NEL with that of 1,25(OH)2D3.
# (B) HL-60 Differentiation
# The study drugs were dissolved in ethanol and the concentrations determined using UV spectrophotometry. Serial dilutions were prepared so that a range of drug concentrations could be tested without changing the final concentration of ethanol (≦0.2%) present in the cell cultures.
# Human promyelocytic leukemia (HL60) cells were grown in RPMI-1640 medium containing 10% fetal bovine serum. The cells were incubated at 37° C. in the presence of 5% CO2.
# HL60 cells were plated at 1.2×10^5 cells/ml. Eighteen hours after plating, cells in duplicate were treated with drug. Four days later, the cells were harvested and a nitro blue tetrazolium reduction assay was performed (Collins et al., 1979; J. Exp. Med. 149:969-974). The percentage of differentiated cells was determined by counting a total of 200 cells and recording the number that contained intracellular black-blue formazan deposits. Verification of differentiation to monocytic cells was determined by measuring phagocytic activity (data not shown).
# [3] = Bone calcium mobilization (serum calcium); format: in vivo, Sprague-Dawley rats; details: rats, four consecutive ip doses; equimolar or 27 times the dose of 1α,25-dihydroxyvitamin D3; FIG. 2
# Source text: FIG. 2 is a bar graph comparing the bone calcium mobilization activity of NEL with that of 1,25(OH)2D3.
# (§1) (D) Intestinal Calcium Transport and Bone Calcium Mobilization
# (§2) Male, weanling Sprague-Dawley rats were placed on Diet 11 (0.47% Ca) diet+AEK for one week followed by Diet 11 (0.02% Ca)+AEK for 3 weeks. The rats were then switched to a diet containing 0.47% Ca for one week followed by two weeks on a diet containing 0.02% Ca. Dose administration began during the last week on 0.02% calcium diet. Four consecutive ip doses were given approximately 24 hours apart. Twenty-four hours after the last dose, blood was collected from the severed neck and the concentration of serum calcium determined as a measure of bone calcium mobilization. The first 10 cm of the intestine was also collected for intestinal calcium transport analysis using the everted gut sac method.
# [4] = Intestinal calcium transport (everted gut sac method); format: in vivo, Sprague-Dawley rats; details: rats, four consecutive ip doses; equimolar or 27 times the dose of 1α,25-dihydroxyvitamin D3; FIG. 3
# Source text: FIG. 3 is a bar graph comparing the intestinal calcium transport activity of NEL with that of 1,25(OH)2D3.
# as §1, §2
# [5] = tested on: 24-hdyroxylase (24Ohase) gene promoter in ROS 17/2.8 (bone) cells; test: In vitro transcription assay (luciferase reporter); format: cell-based; details: Ros17/2.8 (bone) cells, 24-hydroxylase promoter-luciferase, 16 h; FIG. 5
# Procedure: FIG. 5 is a graph comparing the in vitro transcription activity of NEL with that of 1,25(OH)2D3.
# (C) In vitro Transcription Assay
# Transcription activity was measured in ROS 17/2.8 (bone) cells that were stably transfected with a 24-hdyroxylase (24Ohase) gene promoter upstream of a luciferase reporter gene (Arbour et al., 1998). Cells were given a range of doses. Sixteen hours after dosing the cells were harvested and luciferase activities were measured using a luminometer. (RLU=relative luciferase units)
# [6] = PTH suppression and hypercalcemia; format: in vivo, Sprague-Dawley rats; details: normal rats; expected
# Procedure: (E) PTH Suppression and Hypercalcemia
# Adult, female Sprague-Dawley rats are obtained from Harlan (Madison, Wis.).
# Upon receipt, the animals are identified by individual tail marks. Animals may then be housed in suspended, stainless steel, wire-bottom cages. Each cage may contain one animal. The animal rooms are maintained at a temperature of 68 to 72° F. and a relative humidity of 25 to 75%. The holding rooms are set to provide 12 hours of light per day. Water and a purified rodent diet (Suda et al., Purified Rodent Diet-Diet 11) containing […] 0.3% phosphorus and fat soluble vitamins A, D, E and K are provided ad libitum
# Animals are randomly assigned to treatment groups (5 animals/group). All doses are administered intraperitoneally in 100 microliters of propylene glycol. […]
# Twenty-four hours after the final dose, blood is collected from the tail artery and the concentration of bioactive serum PTH is measured using the rat BioActive Intact PTH ELISA Kit from Immutopics, Inc. (San Clemente, Calif.).
# Twenty-four hours after the final dose, approximately 1 ml of blood is collected from the tail artery of each experimental animal. […] The level of calcium is determined by diluting the serum into 0.1% lanthum chloride and measuring the absorbance on an atomic absorption spectrophotometer (Perkin Elmer Model 3110, Shelton, Conn.).
# [7] = molecular target: T2, full-length recombinant rat vitamin D receptor (Rattus norvegicus, UniProt P13053); test: Vitamin D receptor competitive binding with [3H]-1,25-(OH)2-D3; details: competition with [3H]-1,25-(OH)2-D3, recombinant rat receptor; FIG. 1
# T2 construct: Full-length recombinant rat receptor was expressed in E. coli BL21(DE3) Codon Plus RIL cells; histidine tag (C); made in house; host or cells: E. coli BL21(DE3) Codon Plus RIL
# T2 sequence (P13053 1-423): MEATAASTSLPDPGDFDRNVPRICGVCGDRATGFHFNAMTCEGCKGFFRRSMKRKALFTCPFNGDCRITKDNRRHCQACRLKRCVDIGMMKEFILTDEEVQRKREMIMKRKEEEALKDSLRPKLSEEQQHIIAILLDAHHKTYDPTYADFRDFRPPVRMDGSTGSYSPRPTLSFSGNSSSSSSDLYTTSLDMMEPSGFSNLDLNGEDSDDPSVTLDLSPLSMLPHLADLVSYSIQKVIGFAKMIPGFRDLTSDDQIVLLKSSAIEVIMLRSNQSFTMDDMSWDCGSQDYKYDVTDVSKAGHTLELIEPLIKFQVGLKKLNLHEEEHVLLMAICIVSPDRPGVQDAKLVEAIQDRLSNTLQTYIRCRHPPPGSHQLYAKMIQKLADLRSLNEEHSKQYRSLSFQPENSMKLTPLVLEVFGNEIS
# Procedure: The first system was a nickel affinity resin that utilizes the C-terminal histidine tag on this protein. The protein that was eluted from this resin was further purified using ion exchange chromatography (S-Sepharose Fast Flow). Aliquots of the purified protein were quick frozen in liquid nitrogen and stored at −80° C. until use. For use in binding assays, the protein was diluted in TEDK50 (50 mM Tris, 1.5 mM EDTA, pH7.4, 5 mM DTT, 150 mM KCl) with 0.1% Chaps detergent. The receptor protein and ligand concentration was optimized such that no more than 20% of the added radiolabeled ligand was bound to the receptor.
# The following day, 100 mcl of hydroxylapatite slurry (50%) was added to each tube and mixed at 10-minute intervals for 30 minutes. The hydroxylapaptite was collected by centrifugation and then washed three times with Tris-EDTA buffer (50 mM Tris, 1.5 mM EDTA, pH 7.4) containing 0.5% Titron X-100. After the final wash, the pellets were transferred to scintillation vials containing 4 ml of Biosafe II scintillation cocktail, mixed and placed in a scintillation counter. Total binding was determined from the tubes containing only radiolabeled ligand.
Compound,"calcemic activity as compared to 1α,25-dihydroxyvitamin D3 [1]",cell differentiation activity (cell differentiation),binding activity to vitamin D receptors (vitamin D receptors),further results
C=C1[C@H](O)CC(=C/C=C2\CCC[C@]3(C)[C@@H](CC)CC[C@@H]23)C[C@H]1O [1α-hydroxy-2-methylene-19-nor-pregnacalciferol],little if any,relatively high,relatively high,–
1α-hydroxy-2-methylene-19-nor-(20S)-homopregnacalciferol,little if any,relatively high,relatively high,–
"C=C1[C@H](O)CC(=C/C=C2\CCC[C@]3(C)[C@@H]([C@H](C)CCCC(C)O)CC[C@@H]23)C[C@H]1O (stereo partly drawn) [NEL, (20R, 25S)-2-Methylene-19,26-dinor-1α,25-dihydroxyvitamin D3]",–,–,–,"inducing differentiation of HL-60 cells compared with 1α,25-dihydroxyvitamin D3 [2]: equally active; bone calcium mobilization (serum calcium) compared with 1α,25-dihydroxyvitamin D3 [3]: limited calcemic activity; also recorded: very low ability to mobilize calcium from bone; intestinal calcium transport activity compared with 1α,25-dihydroxyvitamin D3 [4]: limited calcemic activity; also recorded: very low intestinal calcium transport activity; stimulating transcription of a reporter gene compared with 1α,25-dihydroxyvitamin D3 [5]: equally active; suppressing parathyroid hormone levels [6]: significant activity; binding to the vitamin D receptor compared with 1α,25-dihydroxyvitamin D3 [7]: somewhat more active; also recorded: relatively high binding"
1α-hydroxy-2-methylene-19-nor-bishomopregnacalciferol,little if any,relatively high,relatively high,–
"C[C@H](CCCC(C)(C)O)[C@H]1CC[C@H]2/C(=C/C=C3C[C@@H](O)C[C@H](O)C3)CCC[C@]12C [1α,25-dihydroxy-19-nor-vitamin D3]",–,high potency,–,calcium mobilizing activity ([1]; prior art): very low
